{"source": "patent US20070134178A1", "about": "“Skin lightening complex” (priority 2005, published 2007)", "key": {"[1]": {"conditions": "about 20% HQ in the complex, solvent mixture of two solvents of different polarity index", "text": "Although the melanin-inhibiting effectiveness of HQ is desirable, water-based formulations containing high concentration HQ are difficult to prepare due to limitations in its solubility."}, "[2]": {"conditions": "25° C; cited from earlier work"}}, "data": [{"smiles": "Oc1ccc(O)cc1", "note": "[HQ, 1,4-benzenediol]", "values": [{"measurement": "times more HQ dissolved in the solvent mixture than in aqueous media", "setting": "[1]", "result": "about 38.5 times"}, {"measurement": "HQ solubility in aqueous media", "setting": "[2]", "result": "up to 7.3 g/L"}]}]}
